Experimental data: patent publication US20250099364A1, “METHOD AND COMPOSITIONS FOR COSMETIC COMPOSITIONS” (MARY KAY INC., priority 2023, published 2025)

Experiments:
Type in all cases: cell-based
[1] = tested on: collagen production in fibroblasts; experiment: Collagen production in fibroblasts treated with oxytocin; conditions: 72 hours
Method: FIG. 2. Fibroblasts were treated with oxytocin for 72 hours.

[2] = tested on: elastin production in fibroblasts; experiment: Elastin production in fibroblasts treated with oxytocin; conditions: 72 hours
Method: FIG. 3. Fibroblasts were treated with oxytocin for 72 hours.

[3] = tested on: IL-15 production in keratinocytes; experiment: IL-15 production in keratinocytes treated with oxytocin; conditions: 24 hours
Method: FIG. 4. Keratinocytes were treated with oxytocin for 24 hours.

**Q.** With CC[C@H](C)[C@@H]1NC(=O)[C@H](Cc2ccc(O)cc2)NC(=O)[C@@H](N)CSSC[C@@H](C(=O)N2CCC[C@H]2C(=O)N[C@@H](CC(C)C)C(=O)NCC(N)=O)NC(=O)[C@H](CC(N)=O)NC(=O)[C@H](CCC(N)=O)NC1=O [oxytocin] as the compound, how does the “increase in collagen production compared to untreated control” value ([1]; 25 μg/mL oxytocin) read?
**A.** The value was “+109%”.

**Q.** And the “increase in collagen production compared to untreated control” value ([1]; 100 μg/mL oxytocin)?
**A.** Its value is “+117%”.

**Q.** And the “increase in elastin production compared to untreated control” value (“increase in elastin production” for short) ([2]; 25 ng/mL oxytocin)?
**A.** The value was “+166%”.

**Q.** And the “increase in elastin production” value ([2]; 100 ng/mL oxytocin)?
**A.** The value was “+127%”.

**Q.** What about the “increase in elastin production” value ([2]; 25 μg/mL oxytocin) of the same compound?
**A.** The value was “+133%”.

**Q.** What about the “increase in elastin production” value ([2]; 100 μg/mL oxytocin) of the same compound?
**A.** Its value is “+117%”.

**Q.** And the “increase in IL-15 production compared to untreated control” value (“increase in IL-15 production” below) ([3]; 25 ng/mL oxytocin)?
**A.** The value was “+50%”.

**Q.** And the “increase in IL-15 production” value ([3]; 100 ng/mL oxytocin)?
**A.** The value was “+90%”.

**Q.** And the “increase in IL-15 production” value ([3]; 5 μg/mL oxytocin)?
**A.** Its value is “+121%”.

**Q.** What about the “increase in IL-15 production” value ([3]; 25 μg/mL oxytocin) of the same compound?
**A.** Its value is “+165%”.

**Q.** What about the “increase in IL-15 production” value ([3]; 100 μg/mL oxytocin) of the same compound?
**A.** Its value is “+331%”.
